Experimental data from ChEMBL document CHEMBL4613209, “Quinolone hybrids and their anti-cancer activities: An overview” (Eur J Med Chem, 2019).
pIC50: −log10 of the molar value.

What was measured:
SK-MEL3 = test: Cytotoxicity against human SK-MEL-3 cells assessed as reduction in cell viability by MTT assay; type: functional, cell-based
EJ = test: Cytotoxicity against human EJ cells assessed as reduction in cell viability by MTT assay; type: functional, cell-based
MCF7 [1] = test: Cytotoxicity against human MCF7 cells assessed as reduction in cell viability by MTT assay; type: functional, cell-based
A-431 = test: Cytotoxicity against human A431 cells assessed as reduction in cell viability by MTT assay; type: functional, cell-based
SW480 = test: Cytotoxicity against human SW480 cells assessed as reduction in cell viability by MTT assay; type: functional, cell-based
PC-3 = test: Cytotoxicity against human PC3 cells assessed as reduction in cell viability; type: functional, cell-based
MCF7 [2] = test: Cytotoxicity against human MCF7 cells assessed as reduction in cell viability; type: functional, cell-based
NCI-H460 = test: Cytotoxicity against human NCI-H460 cells assessed as reduction in cell viability; type: functional, cell-based
SW-620 = test: Cytotoxicity against human SW620 cells assessed as reduction in cell viability; type: functional, cell-based
MGC-803 = test: Cytotoxicity against human MGC803 cells assessed as reduction in cell viability; type: functional, cell-based
HepG2 = test: Cytotoxicity against human HepG2 cells assessed as reduction in cell viability; type: functional, cell-based
GES1 = test: Cytotoxicity against human GES-1 cells assessed as reduction in cell viability; type: cell-based

Row | SMILES | pIC50 (SK-MEL3) | pIC50 (EJ) | pIC50 (MCF7 [1]) | pIC50 (A-431) | pIC50 (SW480) | pIC50 (PC-3) | pIC50 (MCF7 [2]) | pIC50 (NCI-H460) | pIC50 (SW-620) | pIC50 (MGC-803) | pIC50 (HepG2) | pIC50 (GES1)
1 | O=C(O)c1cn(C2CC2)c2cc(N3CCN(C/C(=N/OCc4ccccc4)c4cccs4)CC3)c(F)cc2c1=O | 3.88 to 5.70 | 3.88 to 5.70 | 3.88 to 5.70 | 3.88 to 5.70 | 3.88 to 5.70 |  |  |  |  |  |  | 
2 | C[C@H]1COc2c(N3CCN(C)CC3)c(F)cc3c(=O)c(-c4nnc(NC(=O)CCCC(=O)NO)s4)cn1c23 |  |  |  |  |  | 6.90 to 7.72 | 6.90 to 7.72 | 6.90 to 7.72 | 6.90 to 7.72 | 6.90 to 7.72 | 6.90 to 7.72 | < 4.09
3 | CCn1cc(C(=O)O)c(=O)c2cc(F)c(N3CCN(C/C(=N/OC)c4cccs4)CC3)nc21 | 3.88 to 5.70 | 3.88 to 5.70 | 3.88 to 5.70 | 3.88 to 5.70 | 3.88 to 5.70 |  |  |  |  |  |  | 
4 | C[C@H]1COc2c(N3CCN(C)CC3)c(F)cc3c(=O)c(-c4nnc(NC(=O)CCCCCCC(=O)NO)s4)cn1c23 |  |  |  |  |  | 5.51 to 6.22 | 5.51 to 6.22 | 5.51 to 6.22 | 5.51 to 6.22 | 5.51 to 6.22 | 5.51 to 6.22 | < 4.00
5 | C[C@H]1COc2c(N3CCN(C)CC3)c(F)cc3c(=O)c(-c4nnc(NC(=O)CCCCCC(=O)Nc5ccccc5N)s4)cn1c23 |  |  |  |  |  | 6.69 to 7.34 | 6.69 to 7.34 | 6.69 to 7.34 | 6.69 to 7.34 | 6.69 to 7.34 | 6.69 to 7.34 | < 4.09
6 | CCn1cc(C(=O)O)c(=O)c2cc(F)c(N3CCN(CC(=O)c4cccs4)CC3)cc21 | 3.88 to 5.70 | 3.88 to 5.70 | 3.88 to 5.70 | 3.88 to 5.70 | 3.88 to 5.70 |  |  |  |  |  |  | 
7 | CCn1cc(C(=O)O)c(=O)c2cc(F)c(N3CCN(C/C(=N/O)c4ccc(Cl)s4)CC3)cc21 | ≥ 4.70 | ≥ 4.70 | ≥ 4.70 | ≥ 4.70 | ≥ 4.70 |  |  |  |  |  |  | 
8 | C[C@H]1COc2c(N3CCN(C)CC3)c(F)cc3c(=O)c(-c4nnc(NC(=O)CCCCCCC(=O)Nc5ccccc5N)s4)cn1c23 |  |  |  |  |  | 6.69 to 7.34 | 6.69 to 7.34 | 6.69 to 7.34 | 6.69 to 7.34 | 6.69 to 7.34 | 6.69 to 7.34 | < 4.09
9 | C[C@H]1COc2c(N3CCN(C)CC3)c(F)cc3c(=O)c(-c4nnc(NC(=O)CCCC(=O)O)s4)cn1c23 |  |  |  |  |  | 4.84 to 5.96 | 4.84 to 5.96 | 4.84 to 5.96 | 4.84 to 5.96 | 4.84 to 5.96 | 4.84 to 5.96 | < 4.09
10 | CCn1cc(C(=O)O)c(=O)c2cc(F)c(N3CCN(C/C(=N/OCc4ccccc4)c4ccc(Cl)s4)CC3)cc21 | ≥ 4.70 | ≥ 4.70 | ≥ 4.70 | ≥ 4.70 | ≥ 4.70 |  |  |  |  |  |  | 
